# Measurements from ChEMBL document CHEMBL1142178, “Lysostaphin-resistant variants of Staphylococcus aureus demonstrate reduced fitness in vitro and in vivo” (2007).
# Columns and labels:
# Type in all cases: functional
# Staphylococcus aureus [1] = experiment: Antibacterial activity against methicillin-resistant Staphylococcus aureus MBT 5040 in CF1 mouse assessed as kidney infection after 7 days
# Staphylococcus aureus [2] = experiment: Antibacterial activity against methicillin-resistant Staphylococcus aureus Col in CF1 mouse assessed as kidney infection after 7 days
# Staphylococcus aureus [3] = experiment: Antibacterial activity against methicillin-resistant Staphylococcus aureus MBT 5040 and Staphylococcus aureus MBT 5040-LysoR co-infected in CF1 mouse assessed as kidney infection after 7 days
# Staphylococcus aureus [4] = experiment: Antibacterial activity against methicillin-resistant Staphylococcus aureus Col and Staphylococcus aureus Col-LysoR co-infected in CF1 mouse assessed as kidney infection after 7 days
# Staphylococcus aureus [5] = experiment: Antibacterial activity against methicillin-resistant Staphylococcus aureus MBT 5040
# Staphylococcus aureus [6] = experiment: Antibacterial activity against methicillin-resistant Staphylococcus aureus Col-LysoR
# Staphylococcus aureus [7] = experiment: Antibacterial activity against methicillin-resistant Staphylococcus aureus Col
# Staphylococcus aureus [8] = experiment: Antibacterial activity against methicillin-resistant Staphylococcus aureus MBT 5040-LysoR
SMILES,CFU (Staphylococcus aureus [1]),CFU (Staphylococcus aureus [2]),CFU (Staphylococcus aureus [3]),CFU (Staphylococcus aureus [4]),MIC (Staphylococcus aureus [5]) [µg/mL],MIC (Staphylococcus aureus [6]) [µg/mL],MIC (Staphylococcus aureus [7]) [µg/mL],MIC (Staphylococcus aureus [8]) [µg/mL]
CCOc1ccc2ccccc2c1C(=O)N[C@@H]1C(=O)N2[C@@H]1SC(C)(C)[C@@H]2C(=O)O [NAFCILLIN],5630,9960,9520,10780,–,–,–,–
Cc1onc(-c2ccccc2)c1C(=O)N[C@@H]1C(=O)N2[C@@H]1SC(C)(C)[C@@H]2C(=O)[O-].[Na+],–,–,–,–,> 32,0.25,> 32,0.25
